Several values for one entry are separate records, joined by “and”; a condition that tells them apart may be missing. Equal values may be shown once.
Legend:
[1] = target: T1, T7 Lig-N-HiBiT (DNA ligase) (Escherichia phage T7, UniProt P00969); experiment: SDR assay (aqueous ligand dispense), T7 Lig-N-HiBiT; conditions: for SDR assay data: 1 nM T7 Lig-N-HiBiT; for SDR assay data / SDR response: Log [ATP]; for SDR response: replicates
T1 sequence (P00969 2-359): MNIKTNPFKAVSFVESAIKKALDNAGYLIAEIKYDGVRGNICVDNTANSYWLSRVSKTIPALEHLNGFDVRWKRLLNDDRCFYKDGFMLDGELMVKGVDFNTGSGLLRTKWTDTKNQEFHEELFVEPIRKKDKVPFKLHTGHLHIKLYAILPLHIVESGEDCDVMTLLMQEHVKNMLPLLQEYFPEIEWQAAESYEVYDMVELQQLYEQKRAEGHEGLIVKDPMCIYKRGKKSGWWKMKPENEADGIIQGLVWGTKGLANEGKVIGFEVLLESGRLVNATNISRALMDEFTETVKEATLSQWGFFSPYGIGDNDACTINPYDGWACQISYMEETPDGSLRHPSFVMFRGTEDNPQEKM

B. malayi iPGM-C-HiBiT = B. malayi iPGM-C-HiBiT (Brugia malayi, UniProt Q4VWF8); experiment: iPGM coupled-enzyme assay, B. malayi iPGM-C-HiBiT; type: biochemical; design: cDNA, containing Ala2-Glu515 and the 6xHis tag; His6 (C); made in house; host or cells: E. coli; conditions: B. malayi iPGM-C-HiBiT Std 5 nM; ligand […] Std
Method: The enzyme activity of C. elegans or B. malayi iPGM-C-HiBiT was measured using the functional coupled-enzyme luminescence end-point output assay for iPGM as previously described[16],[41],[68]. Briefly, the indicated concentration of 4 μL of iPGM-C-HiBiT was dispensed into 1536-well white, high solid base, medium bind plates in a pH 8.0 iPGM assay buffer (30 mM Tris-HCl, 5 mM magnesium sulfate, 20 mM potassium chloride and 0.08% BSA) with the BioRaptr 2. Compounds and controls were added to each plate with a pintool as described in Supplementary Data 8. Enzymes were incubated with peptide for > 20 min at ambient temperature, protected from light. […] Enzyme was at 5 nM final concentration for the standard assay with an estimated KM 3-phosphoglycerate (3PG) substrate concentration of 400 μM. Plates were incubated at ambient temperature for 10 min, protected from light, then measured by a ViewLux plate reader. […] See Supplementary Table 6 for additional details.
Supplementary Table 6. Protocol for Co- factor independent phosphoglycerate mutase (iPGM) coupled-enzyme assay
Supplementary Table 6: Protocol for Co-factor independent phosphoglycerate m utase (iPGM) coupled- enzym e assay […]
No enzym e control (colum n 1) and enzym e solutions (5 nM Bm iPGM-C-HiBiT or Ce iPGM-1 Reagent 4 µLC-HiBiT dialyzed against Zn/Mn final assay concentration) in PGM enzym e buffer; white/solid bottom , m edium bind, high base plates (Greiner), dispensed with BioRaptr 2 […]
in 8-pt 1:6 titration series in duplicate); com pounds transferred to respective colum ns with […]
Test com pounds: m acrocyclic peptides at 5 m M stock concentration in 16-pt, 1:3 titration […]
transferred to respective colum ns with Pintool
3 Incubation 20 m inIncubate enzym e + com pounds at am bient tem p for 20 m in, protected from light 4 Reagent 2 µLSubstrate solution; 0.4 m M final concentration 3PG in coupled-enzym e substrate buffer; dispensed with BioRaptr 2
5 Incubation 5 m inAm bient tem perature, protected from light
6 Reagent 4 µLKinase-Glo Plus reagent (Prom ega) prepared according to m anufacturer’s protocol;
7 Incubation 10 m inRoom tem perature, protected from light
8 Detector ViewLuxRead plate lum inescence (Exposure = 1 sec; Gain = Medium; Speed = Slow; Binning = 2X) […]
in 20% glycerol); Bm iPGM-C-HiBiT enzym e 10 µM stock solution in 20% glycerol.
Coupled-enzym e substrate solution: 30 m M Tris-HCl, pH 8.0; 5 m M MgSO4; 20 m M KCl; 9 m M ADP (3 m M final); 0.1 4 units/µl enolase (Millipore Sigm a, Cat# E6126); 0.15 units/µl pyruvate kinase (from rabbit m uscle, Millipore Sigm a, Cat #

[2] = T7 Lig-N-HiBiT (1 nM), ligand 100 µM

B. malayi iPGM-C-HiBiT, sequence (Q4VWF8 2-515): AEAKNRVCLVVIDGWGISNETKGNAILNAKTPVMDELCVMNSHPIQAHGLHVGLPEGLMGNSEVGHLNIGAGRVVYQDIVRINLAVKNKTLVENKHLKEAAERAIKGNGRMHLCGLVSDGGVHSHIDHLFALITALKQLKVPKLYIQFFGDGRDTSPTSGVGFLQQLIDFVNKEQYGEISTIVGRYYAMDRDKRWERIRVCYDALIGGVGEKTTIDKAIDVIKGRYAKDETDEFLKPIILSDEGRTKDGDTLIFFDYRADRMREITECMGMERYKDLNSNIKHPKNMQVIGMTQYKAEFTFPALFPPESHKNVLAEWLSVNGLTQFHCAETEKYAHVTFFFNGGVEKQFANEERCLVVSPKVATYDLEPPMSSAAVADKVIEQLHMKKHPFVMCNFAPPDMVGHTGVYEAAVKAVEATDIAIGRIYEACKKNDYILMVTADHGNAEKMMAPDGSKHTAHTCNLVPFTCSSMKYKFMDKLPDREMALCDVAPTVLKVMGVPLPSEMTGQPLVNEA

Nc1ncnc2c1ncn2[C@@H]1O[C@H](COP(=O)(O)OP(=O)(O)OP(=O)(O)O)[C@@H](O)[C@H]1O [ATP]
EC50 [1]: ≥ 100 µM
SDR assay data ([1]; M -2.85): 436.8 and 379.9 and 405.2
SDR assay data ([1]; M -3.15): 279.5 and 253.1 and 256.0
SDR assay data ([1]; M -3.45): 148.4 and 136.3 and 161.1
SDR assay data ([1]; M -3.75): 97.7 and 88.5 and 106.1
SDR assay data ([1]; M -4.05): 63.0 and 57.2 and 69.3
SDR assay data ([1]; M -4.35): 47.1 and 49.4 and 60.4
SDR assay data ([1]; M -4.65): 42.9 and 27.8 and 47.0
SDR assay data ([1]; M -4.95): 31.1 and 25.7 and 35.7
SDR assay data ([1]; M -5.55): 21.1 and 18.2 and 32.8
SDR assay data ([1]; M -6.46): 17.8 and 13.4 and 26.6
SDR assay data ([1]; M -6.76): 16.5 and 24.2 and 25.4
SDR response ([1]; M -2.85): 405.2 and 436.8 and 379.9
SDR response ([1]; M -3.15): 256.0 and 279.5 and 253.1
SDR response ([1]; M -3.45): 161.1 and 148.4 and 136.3
SDR response ([1]; M -3.75): 106.1 and 97.7 and 88.5
SDR response ([1]; M -4.05): 69.3 and 63.0 and 57.2
SDR response ([1]; M -4.35): 60.4 and 47.1 and 49.4
SDR response ([1]; M -4.65): 47.0 and 42.9 and 27.8
SDR response ([1]; M -4.95): 35.7 and 31.1 and 25.7
SDR response ([1]; M -5.25): 40.3 and 24.1 and 20.1
SDR response ([1]; M -5.55): 32.8 and 21.1 and 18.2
SDR response ([1]; M -5.86): 31.3 and 18.8
SDR response ([1]; M -6.16): 32.1 and 13.9 and 17.4
SDR response ([1]; M -6.46): 26.6 and 17.8 and 13.4
SDR response ([1]; M -6.76): 25.4 and 16.5 and 24.2
SDR assay response (in words) ([1]; T7 Lig-N-HiBiT): strong SDR signal
SDR assay statistics Ave RLU [1, 2]: 88.7 RLU
SDR assay statistics S:B [1, 2]: 2.0
SDR assay statistics S:N [1, 2]: 5.7
SDR assay statistics Z’ [1, 2]: 0.337
max resp ([1]; T7 Lig-N-HiBiT, maximum response): 407.3

CC(C)C[C@H](NC(=O)[C@H](Cc1ccc(O)cc1)NC(=O)[C@@H]1CSCC(=O)N[C@H](Cc2ccc(O)cc2)C(=O)N[C@@H](CC(=O)O)C(=O)N[C@@H](Cc2ccc(O)cc2)C(=O)N2CCC[C@H]2C(=O)NCC(=O)N[C@@H](CC(=O)O)C(=O)N[C@@H](Cc2ccc(O)cc2)C(=O)N1)C(=O)N[C@@H](Cc1ccc(O)cc1)C(=O)NCC(=O)N[C@H](C(=O)N[C@@H](CS)C(=O)NCC(N)=O)[C@@H](C)O [Ce-2]
Standard assay statistics Ave RLU (B. malayi iPGM-C-HiBiT): 4115.8 RLU
Standard assay statistics S:B (B. malayi iPGM-C-HiBiT): 1.7
Standard assay statistics S:N (B. malayi iPGM-C-HiBiT): -6.9
Standard assay statistics Z’ (B. malayi iPGM-C-HiBiT): 0.521

— PMC12064818, “A general assay platform to study protein pharmacology using ligand-dependent structural dynamics” (Nature Communications, 2025)
